Measurements as given in ChEMBL document CHEMBL3217616, “Modular assembly of cytotoxic acetogenin mimetics by click linkage with nitrogen functionalities” (Medchemcomm, 2011).

Legend:
K562 = assay: Cytotoxicity against human K562 cells after 48 hrs by CCK-8 assay; type: functional, cell-based; details: K562, 48 h
Kasumi 1 = assay: Cytotoxicity against human Kasumi-1 cells after 48 hrs by CCK-8 assay; type: functional, cell-based; details: Kasumi 1, 48 h
HL-60 = assay: Cytotoxicity against human HL60 cells after 48 hrs by CCK-8 assay; type: functional, cell-based; details: HL-60, 48 h
Jurkat = assay: Cytotoxicity against human Jurkat cells after 48 hrs by CCK-8 assay; type: functional, cell-based
MCF7 = assay: Cytotoxicity against human MCF7 cells after 48 hrs by CCK-8 assay; type: functional, cell-based; details: MCF7, 48 h
[1] = Cytotoxicity against human MDA-MB-435S cells after 48 hrs by CCK-8 assay; type: functional, cell-based
BT-549 = assay: Cytotoxicity against human BT549 cells after 48 hrs by CCK-8 assay; type: functional, cell-based; details: BT-549, 48 h
BT-474 = assay: Cytotoxicity against human BT474 cells after 48 hrs by CCK-8 assay; type: functional, cell-based; details: BT-474, 48 h
SK-BR-3 = assay: Cytotoxicity against human SK-BR-3 cells after 48 hrs by CCK-8 assay; type: functional, cell-based; details: SK-BR-3, 48 h
SW-620 = assay: Cytotoxicity against human SW620 cells after 48 hrs by CCK-8 assay; type: functional, cell-based; details: SW-620, 48 h
[2] = Cytotoxicity against human NB4 cells assessed as growth inhibition at 0.2 uM after 48 hrs by CCK-8 assay; type: functional; details: NB-4, 48 h
[3] = Cytotoxicity against human NB4 cells assessed as growth inhibition at 5 to 25 uM after 48 hrs by CCK-8 assay; type: functional, NB-4
U-937 = assay: Cytotoxicity against human U937 cells after 48 hrs by CCK-8 assay; type: functional, cell-based; details: U-937, 48 h
[4] = Cytotoxicity against human NB4 cells after 48 hrs by CCK-8 assay; type: functional, cell-based; details: NB-4, 48 h

Row | Compound | IC50 (K562) [µM] | IC50 (Kasumi 1) [µM] | IC50 (HL-60) [µM] | IC50 (Jurkat) [µM] | IC50 (MCF7) [µM] | IC50 [1] [µM] | IC50 (BT-549) [µM] | IC50 (BT-474) [µM] | IC50 (SK-BR-3) [µM] | IC50 (SW-620) [µM] | inhibition at 0.2 µM [2] [%] | inhibition (INH) [3] [%] | IC50 (U-937) [µM] | IC50 [4] [µM]
1 | CCCCCCCCCC[C@H](O)COCCOC[C@@H](O)CCCCCCCCCCCCC1=C[C@H](C)OC1=O | 2.7 | 1.1 | > 25 | 2.6 | > 25 | > 25 | 3.3 | > 25 | 22.1 | > 25 | 48.6 | >70 | 1.2 | 0.7
2 | CCCCCCCCCC[C@H](O)COCCOC[C@@H](O)Cc1cn(CCCCCCCCCC2=C[C@H](C)OC2=O)nn1 | 8.5 | 17.8 | > 25 | > 25 | > 25 | > 25 | > 25 | > 25 | > 25 | > 25 | – | – | > 25 | 3.2
3 | CCCCCCCCCC[C@H](O)COCCOC[C@@H](O)CC(=O)NCCCCCCCCCC1=C[C@H](C)OC1=O | 15 | 16.7 | 7.4 | 14 | > 25 | > 25 | > 25 | > 25 | > 25 | > 25 | – | – | 5.2 | 4.5
4 | CCCCCCCCCC[C@H](O)COCCOC[C@@H](O)CCC1CCN(CCCCCCCCCC2=C[C@H](C)OC2=O)CC1 | 3.1 | 3.9 | > 25 | 1.2 | > 25 | 5 | 2.2 | > 25 | 8 | 8.1 | 6.2 | >70 | 4.4 | 1.9
